From US20260258084A1, “New Peptides as Selective IL-23 Receptor Antagonists” (Sanofi, priority 2022, published 2026)
Starred links: 1 amine or outer side, 2 acyl side, 3 side chain; linkers in the order of their positions; H or OH if unused. Positions of bridges follow the written chain, without caps; N, C: chain ends. Non-standard residues stand in square brackets, D forms with d. Residues, ends and D or L forms follow the SMILES beside them. *: point of attachment. X3 = CN(CCCCC(=O)N[C@@H](CS[*:2])C(=O)[*:1])[*:3]; Trp(7-Me) = Cc1cccc2c(C[C@H](N)C(=O)O)c[nH]c12; 2Nal = N[C@@H](Cc1ccc2ccccc2c1)C(=O)O; AEF = NCCOc1ccc(C[C@H](N)C(=O)O)cc1; 3Pal = N[C@@H](Cc1cccnc1)C(=O)O; X4 = CN(CCCCCC(=O)[*:2])[*:1]; αMeL = CC(C)C[C@](C)(N)C(=O)O; Thp = NC1(C(=O)O)CCOCC1; Me2NCH2CH2 = CN(C)CC*; Aib = CC(C)(N)C(=O)O; Ava = NCCCCC(=O)O; βAla = NCCC(=O)O; Sar = CNCC(=O)O

System: IL-23 induced STAT3 signaling in HEK-Blue™ IL-23 cells
Assay: IL-23 induced STAT3 signaling in HEK-Blue IL-23 cells (SEAP reporter)
Format: cell-based
Conditions: human IL23 0.25 ng/ml, read-out: pSTAT3
How it was run: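 HEK-Blue IL-23 cells (10,000/well) pre-incubated 60 min at 37 °C with serially diluted peptides, then stimulated overnight with human IL-23 (0.25 ng/ml final). STAT3-driven SEAP in supernatant detected with QUANTI-Blue after 45 min at RT (OD 620-655 nm); dose-response curves fitted.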

Compound	IC50
CC(C)C[C@@H](NC(=O)[C@H](CC(N)=O)NC(=O)[C@@H]1CC(=O)N(C)CCCCCC(=O)N[C@H]2CSSC[C@H](NC(=O)[C@H](CCC(N)=O)NC(=O)[C@H](Cc3c[nH]c4ccccc34)NC(=O)[C@H]([C@@H](C)O)NC(=O)[C@H](CC(N)=O)NC2=O)C(=O)N[C@@H](Cc2ccc(OCCN(C)C)cc2)C(=O)N[C@@H](Cc2ccc3ccccc3c2)C(=O)N[C@@](C)(CC(C)C)C(=O)N1)C(N)=O [compound 40] ([X4]CNTWQCY(Me2NCH2CH2)[2Nal][αMeL]DN[dL]-NH2; disulfide 2-7; lactam N-11)	50800 pM
CC(=O)N[C@H]1CCCCNC(=O)[C@@H]2CSSC[C@H](NC(=O)[C@H](CCC(N)=O)NC(=O)[C@H](Cc3c[nH]c4ccccc34)NC1=O)C(=O)N[C@@H](Cc1ccc(OCCN)cc1)C(=O)N[C@@H](Cc1ccc3ccccc3c1)C(=O)N[C@@](C)(CC(C)C)C(=O)N[C@H](C(=O)N[C@@H](C)C(=O)N[C@H](CC(C)C)C(N)=O)CCC(=O)N(C)CCCCC(=O)N2 [compound 44] (Ac-KWQC[AEF][2Nal][αMeL]EA[dL]-NH2; linker 1-4-8 via X3)	42500 pM
CC(=O)NCCCC[C@@H]1NC(=O)[C@H](Cc2c[nH]c3c(C)cccc23)NC(=O)[C@H]([C@@H](C)O)NC(=O)[C@H](CC(N)=O)NC(=O)[C@@H]2CSSC[C@H](NC1=O)C(=O)N[C@@H](Cc1ccc(OCCN(C)C)cc1)C(=O)N[C@@H](Cc1ccc3ccccc3c1)C(=O)NC(C)(C)C(=O)N[C@H](C(=O)N[C@@H](CC(N)=O)C(=O)N[C@@H](Cc1c[nH]cn1)C(=O)N(C)CC(N)=O)CCC(=O)NCCCCC(=O)N2 [compound 45] ([Ava]CNT[Trp(7-Me)]K(Ac)CY(Me2NCH2CH2)[2Nal][Aib]ENH[Sar]-NH2; disulfide 2-7; lactam N-11)	670 pM
CC(=O)NCCCC[C@@H]1NC(=O)[C@H](Cc2c[nH]c3c(C)cccc23)NC(=O)[C@H]([C@@H](C)O)NC(=O)[C@H](CC(N)=O)NC(=O)[C@@H]2CSSC[C@H](NC1=O)C(=O)N[C@@H](Cc1ccc(OCCN(C)C)cc1)C(=O)N[C@@H](Cc1ccc3ccccc3c1)C(=O)NC1(CCOCC1)C(=O)N[C@H](C(=O)N[C@@H](CC(N)=O)C(=O)N[C@@H](Cc1c[nH]cn1)C(=O)N(C)CC(N)=O)CCC(=O)NCCCCC(=O)N2 [compound 46] ([Ava]CNT[Trp(7-Me)]K(Ac)CY(Me2NCH2CH2)[2Nal][Thp]ENH[Sar]-NH2; disulfide 2-7; lactam N-11)	840 pM
CC(=O)NCCCC[C@@H]1NC(=O)[C@H](Cc2c[nH]c3c(C)cccc23)NC(=O)[C@H]([C@@H](C)O)NC(=O)[C@H](CC(N)=O)NC(=O)[C@@H]2CSSC[C@H](NC1=O)C(=O)N[C@@H](Cc1ccc(OCCN(C)C)cc1)C(=O)N[C@@H](Cc1ccc3ccccc3c1)C(=O)N[C@@](C)(CC(C)C)C(=O)N[C@H](C(=O)N[C@@H](CC(N)=O)C(=O)N[C@@H](Cc1c[nH]cn1)C(=O)N(C)CC(N)=O)CCC(=O)NCCCCC(=O)N2 [compound 47] ([Ava]CNT[Trp(7-Me)]K(Ac)CY(Me2NCH2CH2)[2Nal][αMeL]ENH[Sar]-NH2; disulfide 2-7; lactam N-11)	570 pM
CC(=O)NCCCC[C@@H]1NC(=O)[C@H](Cc2c[nH]c3c(C)cccc23)NC(=O)[C@H]([C@@H](C)O)NC(=O)[C@H](CC(N)=O)NC(=O)[C@@H]2CSSC[C@H](NC1=O)C(=O)N[C@@H](Cc1ccc(OCCN(C)C)cc1)C(=O)N[C@@H](Cc1ccc3ccccc3c1)C(=O)NC(C)(C)C(=O)N[C@H](C(=O)N[C@@H](CC(N)=O)C(=O)N[C@@H](Cc1c[nH]cn1)C(=O)NCCC(N)=O)CCC(=O)NCCCCC(=O)N2 [compound 48] ([Ava]CNT[Trp(7-Me)]K(Ac)CY(Me2NCH2CH2)[2Nal][Aib]ENH[βAla]-NH2; disulfide 2-7; lactam N-11)	600 pM
CC(=O)NCCCC[C@@H]1NC(=O)[C@H](Cc2c[nH]c3c(C)cccc23)NC(=O)[C@H]([C@@H](C)O)NC(=O)[C@H](CC(N)=O)NC(=O)[C@@H]2CSSC[C@H](NC1=O)C(=O)N[C@@H](Cc1ccc(OCCN(C)C)cc1)C(=O)N[C@@H](Cc1ccc3ccccc3c1)C(=O)NC1(CCOCC1)C(=O)N[C@H](C(=O)N[C@@H](CC(N)=O)C(=O)N[C@@H](Cc1c[nH]cn1)C(=O)NCCC(N)=O)CCC(=O)NCCCCC(=O)N2 [compound 49] ([Ava]CNT[Trp(7-Me)]K(Ac)CY(Me2NCH2CH2)[2Nal][Thp]ENH[βAla]-NH2; disulfide 2-7; lactam N-11)	1790 pM
CC(=O)NCCCC[C@@H]1NC(=O)[C@H](Cc2c[nH]c3c(C)cccc23)NC(=O)[C@H]([C@@H](C)O)NC(=O)[C@H](CC(N)=O)NC(=O)[C@@H]2CSSC[C@H](NC1=O)C(=O)N[C@@H](Cc1ccc(OCCN(C)C)cc1)C(=O)N[C@@H](Cc1ccc3ccccc3c1)C(=O)N[C@@](C)(CC(C)C)C(=O)N[C@H](C(=O)N[C@@H](CC(N)=O)C(=O)N[C@@H](Cc1c[nH]cn1)C(=O)NCCC(N)=O)CCC(=O)NCCCCC(=O)N2 [compound 50] ([Ava]CNT[Trp(7-Me)]K(Ac)CY(Me2NCH2CH2)[2Nal][αMeL]ENH[βAla]-NH2; disulfide 2-7; lactam N-11)	980 pM
CC(=O)NCCCC[C@@H]1NC(=O)[C@H](Cc2c[nH]c3c(C)cccc23)NC(=O)[C@H]([C@@H](C)O)NC(=O)[C@H](CC(N)=O)NC(=O)[C@@H]2CSSC[C@H](NC1=O)C(=O)N[C@@H](Cc1ccc(OCCN(C)C)cc1)C(=O)N[C@@H](Cc1ccc3ccccc3c1)C(=O)NC1(CCOCC1)C(=O)N[C@H](C(=O)N[C@@H](CC(N)=O)C(=O)N[C@@H](Cc1cccnc1)C(N)=O)CCC(=O)NCCCCC(=O)N2 [compound 51] ([Ava]CNT[Trp(7-Me)]K(Ac)CY(Me2NCH2CH2)[2Nal][Thp]EN[3Pal]-NH2; disulfide 2-7; lactam N-11)	50 pM
